Measurements from patent publication US12364706B2, “Modified aminoglycoside compounds and uses thereof in disabling bacterial ribosome” (Technion Research & Development Foundation Limited, priority 2018, dated 2025).
pIC50: −log10 of the molar value.

Assays:
[1] = test system: E. coli ribosomes; test: rRNA cleavage experiments with full-size E. coli ribosomes (gel electrophoresis); type: biochemical
[2] = test system: WT and aminoglycoside-resistant strains, including Gram-negative and Gram-positive bacteria; test: Antibacterial activity (MIC) against WT and aminoglycoside-resistant strains; type: cell-based
Procedure: (§1) Comparative antibacterial activities were determined by measuring the MIC values by using the double-microdilution method according to the National Committee for Clinical Laboratory Standards (NCCLS).
(§2) All the experiments were performed in triplicate, and analogous results were obtained in three different experiments.
The minimal inhibitory concentration (MIC) values of the newly designed exemplary Compounds 1-10 were determined against wild-type (WT) Gram-negative and Gram-positive bacteria.
The bacterial strains that were included in these tests were as follows:
Two wild-type (WT) E. coli strains (R477-100 and 25922) as representatives of Gram-negative bacteria with unknown resistance to aminoglycosides [V. Pokrovskaya, V. Belakhov, M. Hainrichson, S. Yaron, T. Baasov, J. Med. Chem. 2009, 52, 2243-2254] and two WT Staphylococcus epidermidis and Bacillus subtilis strains as representatives of Gram-positive bacteria (the clinically used aminoglycosides have significant antibacterial activity against these strains) [J. Kondo, M. Hainrichson, I. Nudelman, D. Shallom-Shezifi, C. M. C. M. Barbieri, D. S. D. S. Pilch, E. Westhof, T. Baasov, ChemBioChem 2007, 8, 1700-1709]. […]

[3] = test system: E. coli S30 extract for circular DNA with the pBESTluc plasmid; test: Prokaryotic in vitro translation inhibition, coupled transcription/translation assay; type: biochemical; details: for pIC50: prokaryotic system, 37° C., 60 minutes, read-out: IC50 values, protein translation inhibition (half-maximum inhibition levels); for inhibitory potency of protein translation compared with NeoB: relative to NeoB
Procedure: Prokaryotic in vitro translation inhibition by the different standard and synthetic aminoglycosides was quantified in coupled transcription/translation assays by use of E. coli S30 extract for circular DNA with the pBESTluc plasmid (Promega), according to the manufacturer's protocol.
Translation reactions ([…]) containing variable concentrations of the tested aminoglycoside were incubated at 37° C. for 60 minutes, cooled on ice for 5 minutes, and diluted with a dilution reagent [Tris-phosphate buffer (25 mm, pH 7.8), dithiothreitol (DTT, 2 mm), 1,2-diaminocyclohexanetetraacetate (2 mm), glycerol (10%), triton X100 (1%), and bovine serum albumin (BSA, 1 mg/mL] into 96-well plates.
The luminescence was measured immediately after the addition of Luciferase Assay Reagent (Promega) ([…]), and light emission was recorded with a Victor3 Plate Reader (PerkinElmer).
The concentration of half-maximal inhibition (IC^50) was obtained from fitting concentration-response curves to the data of at least three independent experiments by using Grafit 5 software.

[4] = test system: Geobacillus T1 harboring the resistance to kanamycin; test: Antibacterial activity against kanamycin-resistant Geobacillus T1; type: cell-based
Procedure: as §1, §2

[5] = test system: adenylyl(3′-5′)-adenosine (ApA); details: relative to 1,3-propanediamine; cited from earlier work
[6] = test system: Gram-positive pathogenic MRSA strains; test: Antibacterial activity (MIC, double-microdilution) against MRSA strains; type: cell-based; details: relative to NeoB
Procedure: as §1, §2
The resistant strains included MRSA, a Gram-positive bacterium, the treatment of which represents a great challenge in the clinic; MRSA 252, which is known for its high resistance to aminoglycosides [M. T. G. Holden, E. J. Feil, J. A. Lindsay, S. J. Peacock, N. P. J. Day, M. C. Enright, T. J. Foster, C. E. Moore, L. Hurst, R. Atkin, et al., Proc. Natl. Acad. Sci. USA 2004, 101, 9786-9791]; and MRSA CI 15877, which is resistant to natural aminoglycosides [G. Kaneti, H. Sarig, I. Marjieh, Z. Fadia, A. Mor, FASEB J. 2013, 27, 4834-4843].

CNCCNCCO[C@H]1[C@H](O)[C@@H](N)[C@@H](O[C@H]2[C@H](O[C@@H]3O[C@H](CO)[C@@H](O[C@H]4O[C@@H](CN)[C@@H](O)[C@H](O)[C@H]4N)[C@H]3O)[C@@H](O)[C@H](N)C[C@@H]2N)O[C@@H]1CN [Compound 3, 4′-O-(2-(methylamino)ethylamino)ethyl-neomycin]
cleavage of rRNA in full ribosomes ([1]; pH 7): did not show any signs of the cleaved product

4′-O-(2-aminoethylamino)ethyl-paromamine [Compound 1]
antibacterial activity [2]: substantially lower than that of the other compounds tested

NC[C@@H]1O[C@H](O[C@H]2[C@@H](O)[C@H](O[C@@H]3[C@@H](O)[C@H](N)C[C@H](N)[C@H]3O[C@H]3O[C@H](CN)[C@@H](O)[C@H](O)[C@H]3N)O[C@@H]2CO)[C@H](N)[C@@H](O)[C@@H]1O [NeoB, Neomycin B]
pIC50 [3]: 8.00
antibacterial activity [4]: almost lost its activity
cleavage of rRNA in full ribosomes ([1]; concentrations up to 400 mM, 24 hours, 37° C., pH 7.0): did not show any signs of the cleaved product
hydrolysis of ApA, faster than 1,3-propanediamine [5]: 3 fold

NCCNCCNCC(=O)NC[C@H]1O[C@H](O[C@H]2[C@H](O[C@@H]3O[C@H](CO)[C@@H](O[C@H]4O[C@@H](CN)[C@@H](O)[C@H](O)[C@H]4N)[C@H]3O)[C@@H](O)[C@H](N)C[C@@H]2N)[C@H](N)[C@@H](O)[C@@H]1N [Compound 10, 4′-amino-6′-[2-(2-(2-aminoethylamino)ethylamino)acetamido]-4′-deoxy-neomycin]
pIC50 [3]: 8.22
inhibitory potency of protein translation compared with NeoB [3]: two-fold higher than that of NeoB

4′-O-(2-aminoethylamino)ethyl-neomycin [Compound 2]
MIC values, times lower than that of NeoB [6]: 64 times

NCCNCC(=O)NC[C@H]1O[C@H](O[C@H]2[C@H](O[C@@H]3O[C@H](CO)[C@@H](O[C@H]4O[C@@H](CN)[C@@H](O)[C@H](O)[C@H]4N)[C@H]3O)[C@@H](O)[C@H](N)C[C@@H]2N)[C@H](N)[C@@H](O)[C@@H]1N [Compound 9, 4′-amino-6′-(2-(aminoethylamino)acetamido)-4′-deoxy-neomycin]
pIC50 [3]: 8.30
inhibitory potency of protein translation compared with NeoB [3]: two-fold higher than that of NeoB

NCCNCCNCC(=O)NC1C(CN)OC(OC2C(N)CC(N)C(O)C2OC2OC(CO)C(OC3OC(CN)C(O)C(O)C3N)C2O)C(N)C1O (stereo not drawn) [Compound 8, 4′-[2-(2-(2-aminoethylamino)ethylamino)acetamido]-4′-deoxy-neomycin]
MIC values, times lower than that of NeoB [6]: 64 times

NCCN [ethylenediamine]
cleavage of rRNA in full ribosomes ([1]; pH 7): did not cleave the full ribosome

NCCNCC(=O)N[C@H]1[C@H](O)[C@@H](N)[C@@H](O[C@H]2[C@H](O[C@@H]3O[C@H](CO)[C@@H](O[C@H]4O[C@@H](CN)[C@@H](O)[C@H](O)[C@H]4N)[C@H]3O)[C@@H](O)[C@H](N)C[C@@H]2N)O[C@@H]1CN [Compound 6, 4′-(2-(aminoethylamino)acetamido)-4′-deoxy-neomycin]
pIC50 [3]: 8.22
inhibitory potency of protein translation compared with NeoB [3]: two-fold higher than that of NeoB
